Results reported in patent US12290513B2, “Therapeutic methods and compositions for treating movement disorders” (Vima Therapeutics, Inc., priority 2023, dated 2025).

What was measured:
tear production = test: THP-induced dry eye in dogs: tear production; format: in vivo, Beagles; details: oral, 2 mpk alone, 4 hours post administration
dizziness = details: humans; 3 mg THP immediate release at 0, 2, 4 hours versus 9 mg at once
Procedure: Experimental Design: All of the data collected in this example were run in a double-blind, randomized, placebo controlled setting of normal healthy adults. […] Dizziness was measured by the visual analog scale (VAS), a common clinical measure of dizziness.

[1] = biological target: human muscarinic receptor M3 (Homo sapiens, UniProt P20309); test: cell-based
Procedure: (§1) All cells used in the following experiments were clonal populations of Chinese Hamster Ovary (CHO) cells stably expressing the corresponding human muscarinic receptor, except for the M4 cell line, which was a population of CHO cells transiently transfected with the human M4 receptor. […] The procedure was as follows: • 1. Cells were thawed and cultured in cell culture medium (DMEM/F12 containing 10% FBS, 1× penicillin-streptomycin and 600 μg/ml hygromycin B) at 37° C. in 5% (v/v) CO2. • 2. One day before the assays, cells were detached using TrypLE™ and counted using a cell-counter. […] 12,000 cells/well were seeded in 30 μl/well culture medium in a 384-well cell plate and incubated overnight at 37C, 5% (v/v) CO2. • 4. On the assay day, 2× dye solution was prepared following the manual of the FLIPR® Calcium 6 Assay Kit: • i. The dye was diluted with assay buffer (20 mM HEPES in 1× HBSS, PH 7.4); • ii. Probenecid was added to a final concentration of 5 mM; • iii. […] were vortexed vigorously for 1-2 minutes. • 5. Medium was removed from the cell plate by flicking the cell plate on paper towels. • 6. 10 μl of assay buffer and 10 μl of 2× dye solution was added to each well of the cell plate. • 7. The cell plate was shaken on a plate shaker at 600 rpm for 2 minutes and incubated at 37° C. for 2 hours followed by an additional 15-minute incubation at 25° C. • 8. The test compounds were next prepared in assay buffer: • a. All compounds were diluted to the required concentration with DMSO and added to a 384-well compound plate; • b. All compounds were serially diluted; • 1. Starting with 10 mM concentration of each test compound, all samples were serially diluted in 3-fold dilutions. • 2. 90 nl/well of each compound was transferred from the source plate to a 384-well compound plate using an Echo liquid handler. • 3. 30 μl/well assay buffer was added to the compound plate; • c. The plates were mixed on a plate shaker for 2 mins; • 9. The cell plate, compound plate and pipette tips were placed in the FLIPR screening system and 10 μl of each compound was added to a well of the cell plate. • 10. Plates were read for 160 sec with 1 sec intervals to obtain the data in agonist mode, then kept at 25° C. in the dark for 30 min. • 11.

[2] = biological target: human muscarinic receptor M1 (Homo sapiens, UniProt P11229); test: cell-based
Procedure: as §1

[3] = biological target: T1, human muscarinic receptor M2 (Homo sapiens, UniProt P08172); test: Calcium flux assay (FLIPR), CHO cells expressing human M2; format: cell-based; details: agonist mode
T1 construct: expressed in transfected cells
Procedure: (§2) All cells used in the following experiments were clonal populations of Chinese Hamster Ovary (CHO) cells stably expressing the corresponding human muscarinic receptor, except for the M4 cell line, which was a population of CHO cells transiently transfected with the human M4 receptor. Muscarinic agonism and antagonism of each receptor was measured by a quantitative calcium flux assay that is used for multiple classes of G-protein-coupled receptors, or GPCRs, as described elsewhere (e.g., Arkin et al., […], PMID: 22553878). Acetylcholine and atropine were used as positive controls for receptor agonism and antagonism, respectively. The procedure was as follows: • 1. Cells were thawed and cultured in cell culture medium (DMEM/F12 containing 10% FBS, 1× penicillin-streptomycin and 600 μg/ml hygromycin B) at 37° C. in 5% (v/v) CO2. • 2. One day before the assays, cells were detached using TrypLE™ and counted using a cell-counter. Only cells with >85% viability are used for the assay. • 3. […] Plates were read for 160 sec with 1 sec intervals to obtain the data in agonist mode, then kept at 25° C. in the dark for 30 min. • 11. […] Plates were read for 160 sec with 1 sec intervals, thereby measuring the ability for test compounds to antagonize the activation of muscarinic receptors by Ach.

human M4 receptor = biological target: T2, human M4 receptor (Homo sapiens, UniProt P08173); test: Calcium flux assay (FLIPR), CHO cells transiently transfected with human M4; format: cell-based; details: agonist mode
T2 construct: expressed in transfected cells; host or cells: CHO (transient transfection)
Procedure: All cells used in the following experiments were clonal populations of Chinese Hamster Ovary (CHO) cells stably expressing the corresponding human muscarinic receptor, except for the M4 cell line, which was a population of CHO cells transiently transfected with the human M4 receptor. […] The procedure was as follows: • 1. Cells were thawed and cultured in cell culture medium (DMEM/F12 containing 10% FBS, 1× penicillin-streptomycin and 600 μg/ml hygromycin B) at 37° C. in 5% (v/v) CO2. • 2. One day before the assays, cells were detached using TrypLE™ and counted using a cell-counter. […] 12,000 cells/well were seeded in 30 μl/well culture medium in a 384-well cell plate and incubated overnight at 37C, 5% (v/v) CO2. • 4. On the assay day, 2× dye solution was prepared following the manual of the FLIPR® Calcium 6 Assay Kit: • i. The dye was diluted with assay buffer (20 mM HEPES in 1× HBSS, PH 7.4); • ii. Probenecid was added to a final concentration of 5 mM; • iii. Cells were vortexed vigorously for 1-2 minutes. • 5. Medium was removed from the cell plate by flicking the cell plate on paper towels. • 6. 10 μl of assay buffer and 10 μl of 2× dye solution was added to each well of the cell plate. • 7. […] Plates were read for 160 sec with 1 sec intervals to obtain the data in agonist mode, then kept at 25° C. in the dark for 30 min. • 11.

[4] = biological target: T3, human muscarinic receptor M5 (Homo sapiens, UniProt P08912); test: Calcium flux assay (FLIPR), CHO cells expressing human M5; format: cell-based; details: agonist mode
T3 construct: expressed in transfected cells
Procedure: as §2

[5] = test system: Cerep87 Safety Panel receptors; test: Cerep87 Safety Panel (Eurofins), whole panel statements; format: binding; details: all receptors of the Cerep87 panel

human muscarinic receptor M3, sequence (P20309 whole entry): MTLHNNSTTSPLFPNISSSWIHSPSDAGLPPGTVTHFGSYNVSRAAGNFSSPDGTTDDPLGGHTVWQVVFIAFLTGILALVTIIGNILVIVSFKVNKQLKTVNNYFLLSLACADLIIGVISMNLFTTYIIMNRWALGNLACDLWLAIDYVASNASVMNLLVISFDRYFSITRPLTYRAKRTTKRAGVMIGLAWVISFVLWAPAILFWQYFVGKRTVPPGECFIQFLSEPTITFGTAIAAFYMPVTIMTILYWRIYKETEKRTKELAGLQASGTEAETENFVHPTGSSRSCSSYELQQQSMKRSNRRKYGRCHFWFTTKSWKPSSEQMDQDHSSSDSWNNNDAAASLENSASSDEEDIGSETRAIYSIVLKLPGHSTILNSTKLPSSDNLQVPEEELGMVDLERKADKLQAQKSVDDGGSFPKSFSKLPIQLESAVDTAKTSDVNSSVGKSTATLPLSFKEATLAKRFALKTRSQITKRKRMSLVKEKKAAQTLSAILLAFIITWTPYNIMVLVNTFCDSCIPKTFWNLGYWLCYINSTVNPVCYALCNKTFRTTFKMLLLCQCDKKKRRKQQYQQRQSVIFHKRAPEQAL
T1 sequence (P08172 whole entry): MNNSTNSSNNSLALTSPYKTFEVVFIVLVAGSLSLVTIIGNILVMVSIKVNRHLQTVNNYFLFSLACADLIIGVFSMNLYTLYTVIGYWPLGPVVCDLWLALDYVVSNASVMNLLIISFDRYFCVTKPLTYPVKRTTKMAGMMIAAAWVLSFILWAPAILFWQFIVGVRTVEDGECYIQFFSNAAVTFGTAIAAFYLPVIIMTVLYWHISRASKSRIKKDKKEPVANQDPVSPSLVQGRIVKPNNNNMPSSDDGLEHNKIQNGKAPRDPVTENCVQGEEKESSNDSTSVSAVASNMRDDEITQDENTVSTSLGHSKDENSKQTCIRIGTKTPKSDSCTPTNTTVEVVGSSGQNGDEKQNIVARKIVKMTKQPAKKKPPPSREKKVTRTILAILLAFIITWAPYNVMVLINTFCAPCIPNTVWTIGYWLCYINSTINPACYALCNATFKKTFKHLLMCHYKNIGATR
T3 sequence (P08912 whole entry): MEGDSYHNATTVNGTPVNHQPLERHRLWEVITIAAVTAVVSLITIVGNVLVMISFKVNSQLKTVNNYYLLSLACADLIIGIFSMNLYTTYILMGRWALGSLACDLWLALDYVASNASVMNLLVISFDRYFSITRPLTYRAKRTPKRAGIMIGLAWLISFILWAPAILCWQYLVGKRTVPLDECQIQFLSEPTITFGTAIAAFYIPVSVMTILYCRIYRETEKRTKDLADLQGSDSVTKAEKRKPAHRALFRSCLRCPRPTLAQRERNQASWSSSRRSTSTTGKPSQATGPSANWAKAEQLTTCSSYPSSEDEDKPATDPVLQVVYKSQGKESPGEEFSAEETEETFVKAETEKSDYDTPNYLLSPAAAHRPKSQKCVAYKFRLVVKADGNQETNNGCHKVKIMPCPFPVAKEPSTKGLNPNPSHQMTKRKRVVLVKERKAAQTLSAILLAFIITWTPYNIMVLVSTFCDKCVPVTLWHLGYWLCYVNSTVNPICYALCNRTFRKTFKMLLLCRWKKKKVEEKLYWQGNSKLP
T2 sequence (P08173 whole entry): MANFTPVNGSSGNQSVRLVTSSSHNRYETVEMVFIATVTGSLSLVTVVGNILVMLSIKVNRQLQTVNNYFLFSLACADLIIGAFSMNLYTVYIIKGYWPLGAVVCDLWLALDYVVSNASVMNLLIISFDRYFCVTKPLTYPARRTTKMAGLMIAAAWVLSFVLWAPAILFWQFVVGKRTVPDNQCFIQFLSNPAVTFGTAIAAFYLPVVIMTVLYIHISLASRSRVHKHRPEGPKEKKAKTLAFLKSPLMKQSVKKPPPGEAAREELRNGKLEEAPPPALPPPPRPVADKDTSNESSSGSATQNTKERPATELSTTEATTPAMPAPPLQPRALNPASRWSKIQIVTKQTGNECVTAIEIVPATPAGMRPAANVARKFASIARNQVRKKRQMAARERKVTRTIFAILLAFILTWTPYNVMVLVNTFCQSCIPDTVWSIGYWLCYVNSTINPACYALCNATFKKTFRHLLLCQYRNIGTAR
human muscarinic receptor M1, sequence (P11229 whole entry): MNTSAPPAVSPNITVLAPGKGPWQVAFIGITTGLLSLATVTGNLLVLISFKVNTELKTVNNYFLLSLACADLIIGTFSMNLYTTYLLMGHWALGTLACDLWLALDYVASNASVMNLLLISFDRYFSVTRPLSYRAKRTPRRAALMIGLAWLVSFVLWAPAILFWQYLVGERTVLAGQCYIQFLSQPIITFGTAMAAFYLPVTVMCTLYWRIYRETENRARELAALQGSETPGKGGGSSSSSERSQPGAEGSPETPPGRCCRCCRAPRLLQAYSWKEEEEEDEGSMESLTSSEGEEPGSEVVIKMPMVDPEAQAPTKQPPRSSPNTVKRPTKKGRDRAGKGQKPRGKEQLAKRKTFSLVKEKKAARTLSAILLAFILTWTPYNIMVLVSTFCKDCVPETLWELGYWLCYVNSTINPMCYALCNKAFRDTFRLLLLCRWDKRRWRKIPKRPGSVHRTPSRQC

EC50 [1] [µM]	EC50 [2] [µM]	EC50 [3] [µM]	EC50 (human M4 receptor) [µM]	EC50 [4] [µM]	Compound	% Baseline tear production (tear production) [%]	dizziness (VAS) (dizziness)	signal at any receptor of the panel [5] [%]
–	–	–	–	–	OC(CCN1CCCCC1)(c1ccccc1)C1CCCCC1 (centres unmarked) [THP, trihexyphenidyl]	89.1	significantly reduced dizziness	–
7.57	> 10	> 10	> 10	> 10	C[C@H](C[N+](C)(C)C)OC(N)=O.[Cl-] [(R)-BTC, (R)-bethanechol, reference compound]	–	–	< 50
